# Assay results: publication PMC11013945, “Antiprotozoal Activity of Plants Used in the Management of Sleeping Sickness in Angola and Bioactivity-Guided Fractionation of Brasenia schreberi J.F.Gmel and Nymphaea lotus L. Active against T. b. rhodesiense” (Molecules, 2024)
# Legend:
# P. falciparum [1] = tested on: P. falciparum; design: method as in PMID 29333044; settings: isolated from Alectryon serratus leaves; cited from earlier work
# P. falciparum [2] = experiment: In vitro growth inhibition of P. falciparum erythrocytic stages; type: cell-based, Plasmodium falciparum; settings: Table 4, pure compounds; for IC50: Plasmodium falciparum
# Experimental: (§1) In vitro growth inhibitory activity of the extracts and pure compounds against T. cruzi (intracellular amastigote forms grown in L6 rat myoblasts), L. donovani (axenic amastigote forms in acidic medium or intracellular amastigotes in mouse primary macrophages), and P. falciparum (erythrocytic stages in culture) was determined as described previously. Testing against intracellular L. donovani was performed as follows: mouse peritoneal macrophages (4 × 104 in 100 µL RPMI 1640 medium with 10% heat-inactivated FBS) in 96-well plates were infected with amastigotes (2 × 105 in 100 µL medium). After 24 h, the medium was exchanged twice to remove free amastigotes. Test compounds were added, and the plates incubated for 96 h at 37 °C under 5% CO2. Then, the medium was removed, the cells were fixed with 50 µL 4% formaldehyde, and stained with 5 µM DRAQ5. Nine images were taken per well on a ImageXpress XLS (MD) microscope (Molecular Devices, San Jose, CA, USA) using a 20× air objective (635 nm excitation: 690/50 emission) and analyzed with a script developed on Meta Xpress (MD). Cytotoxicity against L6 cells was assessed by using a similar protocol as outlined for IC50 determination with T. b. rhodesiense, except that rat skeletal myoblasts (L6 cells) were used. The medium was RPMI 1640 medium supplemented with 1% L-glutamine (200 mM) and 10% fetal bovine serum. Reference compounds were melarsoprol for T. b. rhodesiense, benznidazole for T. cruzi, miltefosine for L. donovani, chloroquine and artesunate for P. falciparum, and podophyllotoxin for L6 cells.
# L6 cells = experiment: Cytotoxicity against L6 cells; type: cell-based; settings: Rattus norvegicus, Table 4, pure compounds
# Experimental: as §1
# epimastigote T. cruzi = tested on: epimastigote T. cruzi; design: method as in PMID 27347554; settings: read-out: IC50 against epimastigote T. cruzi; cited from earlier work
# [3] = tested on: sn-glycerol-3-phosphate oxidase system of T. b. brucei; settings: in vitro; cited from earlier work
# T. cruzi = experiment: In vitro growth inhibition of T. cruzi intracellular amastigotes grown in L6 rat myoblasts; type: cell-based, Trypanosoma cruzi; settings: Table 4, pure compounds; for IC50: Trypanosoma cruzi, Myoblast, mean of two independent experiments
# Experimental: as §1
# [4] = tested on: T. b. rhodesiense STIB 900; experiment: IC50 determination against T. b. rhodesiense, serial dilutions, Alamar blue; type: cell-based, Trypanosoma brucei rhodesiense; settings: Table 4, pure compounds; for IC50: Trypanosoma brucei
# L. donovani = experiment: In vitro growth inhibition of L. donovani axenic amastigotes; type: cell-based, Leishmania donovani; settings: Table 4, pure compounds; for IC50: Leishmania donovani, axenic amastigote
# Experimental: as §1
# [5] = tested on: Trypanosoma brucei rhodesiense STIB900; experiment: Growth inhibition (GI) of T. b. rhodesiense bloodstream forms at a single concentration, Alamar blue; type: cell-based; settings: read-out: Growth inhibition (%)
# Experimental: A total of 122 extracts were prepared from different parts of the nine plant species. Each plant part was extracted consecutively with hexane, dichloromethane, ethanol, methanol, and water. The extracts were tested for their in vitro growth inhibition (GI) activity against bloodstream forms of Trypanosoma brucei rhodesiense STIB900, our reference strain for drug testing against African trypanosomes at a concentration of 20 µg/mL. […] A detailed description of the plant species, the parts extracted, solvent, extraction yield, and percentage of growth inhibition (GI%) is given in Supplementary Table S1.
# Growth inhibition (GI) activity against T. b. rhodesiense STIB 900 was determined as follows: in a 96-well microtiter plate, 50 µL of HMI-9 medium supplemented with 15% heat-inactivated horse serum were added to each well. A total of 10 µL of the plant extract stock solution was added to each well. Then, 50 µL of bloodstream-form trypanosomes were added, adjusted with a cell counter (CASY, Schärfe System, Germany) to 4 × 10^4 cells/mL. […] Then, the plate was read with a Spectramax Gemini XS microplate fluorometer (Molecular Devices Corporation, Sunnyvale, CA, USA) using an excitation wavelength of 530 nm and an emission wavelength of 590 nm. Fluorescence was expressed as percentage of the untreated control. […]
# leishmania = tested on: leishmania; design: method as in PMID 16643059; settings: cited from earlier work
# [6] = tested on: intracellular L. donovani; experiment: Intramacrophage assay, intracellular L. donovani amastigotes in mouse peritoneal macrophages; type: cell-based; settings: Leishmania donovani, Macrophage
# Experimental: as §1, with “Reference compounds were melarsoprol for T. b. rhodesiense, benznidazole for T. cruzi, miltefosine for L. donovani, chloroquine and artesunate for P. falciparum, and podophyllotoxin for L6 cells.” left out
# [7] = mean of two independent experiments
IC50 (P. falciparum [2]) [µg/mL],P. falciparum IC50 (P. falciparum [2]) [µg/mL],IC50 (T. cruzi) [µg/mL],IC50 (L. donovani) [µg/mL],IC50 [6] [µg/mL],Structure (SMILES),IC50 against P. falciparum (P. falciparum [1]) [µg/mL],P. falciparum SI (P. falciparum [2]),IC50 (L6 cells) [µg/mL],IC50 (epimastigote T. cruzi) [µM],inhibition of sn-glycerol-3-phosphate oxidase system [3],T. cruzi SI (T. cruzi),T. b. rhodesiense SI [4],"IC50 [4, 7] [µg/mL]",L. donovani SI (L. donovani),inhibition at 0.072 µg/mL [5] [%],IC50 against leishmania (leishmania) [µg/mL],"T. b. rhodesiense IC50 [4, 7] [µg/mL]"
3,2.1,16,8.5,–,"COC(=O)c1cc(O)c(O)c(O)c1 [Methyl gallate (2), methyl gallate]",0.0025,7.8,16,> 100,inhibited,1.0,15,1.1,1.9,–,–,–
–,–,49,52,–,"O=c1cc(-c2ccc(O)c(O)c2)oc2c(O)c(O[C@@H]3O[C@H](CO)[C@@H](O)[C@H](O)[C@H]3O)cc(O)c12 [Hypolaetin-7-O-glucoside (7), hypolaetin-7-O-glucoside]",–,–,19,–,–,0.4,3.2,5.7,0.4,–,–,–
–,–,–,–,–,Nc1nc(N)nc(Nc2ccc([As]3SCC(CO)S3)cc2)n1 (stereo not drawn) [melarsoprol],–,–,–,–,–,–,–,–,–,98.4,–,–
6.7,–,44,15,–,"O=C(OC[C@@H]1O[C@H](OC(=O)c2cc(O)c(O)c(O)c2)[C@@H](OC(=O)c2cc(O)c(O)c(O)c2)[C@H](OC(=O)c2cc(O)c(O)c(O)c2)[C@H]1OC(=O)c1cc(O)c(O)c(O)c1)c1cc(O)c(O)c(O)c1 [Pentagalloyl-β-glucopyranoside (5), 1,2,3,4,6 pentagalloyl-β-glucopyranoside]",–,3.1,21,–,–,0.5,1.0,20,1.4,–,–,–
–,–,–,–,–,"C=CCCC/C=C\C/C=C\CCCCCCCc1cc(O)cc(O)c1 [5-heptadeca-8′Z,11′Z,16-trienylresorcinol]",–,–,–,–,–,–,–,–,–,–,3.6,–
2.1,3.0,16,6.8,–,"CCOC(=O)c1cc(O)c(O)c(O)c1 [Ethyl gallate (4), ethyl gallate]",–,4.9,15,> 100,–,0.9,25,0.5,2.2,–,–,0.6
> 10,–,66,56,–,"O=C(O)c1cc(O)c(O)c(O)c1 [Gallic acid (1), gallic acid]",0.0013,–,16,> 100,inhibited,0.2,34,0.5,0.3,–,–,–
–,–,9.1,2.5,> 11,"CC/C=C\C/C=C\C/C=C\CCCCCCCc1cc(O)cc(O)c1 [Resorcinol-alkyl (8), 5-[(8Z,11Z,14Z)-heptadeca-8,11,14-trienyl] resorcinol]",–,–,13,–,–,1.4,2.5,5.3,5.2,–,–,–
–,–,12,53,–,"O=c1c(O)c(-c2ccc(O)c(O)c2)oc2c(O)c(O[C@@H]3O[C@H](CO)[C@@H](O)[C@H](O)[C@H]3O)cc(O)c12 [Gossypetin-7-O-β-glucopyranoside (6), gossypetin-7-O-β-glucopyranoside]",–,–,8.9,–,–,0.8,1.6,5.5,0.2,–,–,–
